Test results reported in publication PMC9120478 (Nature Communications, 2022).
Changes are numbered by the printed parent chain. “And” between values parts separate entries of the source, which are not always exact repeats. Identical values can stand only once.

How the values were obtained:
[1] = biological target: T1, wild-type mouse TRPV3 (Mus musculus, UniProt Q8K424); experiment: Fura-2 ratiometric Ca2+ uptake, inhibition of 2-APB-evoked response; format: cell-based
T1 construct: expressed in transfected cells; host or cells: HEK 293 S GnTI- cells (baculovirus transduction)
T1 sequence (Q8K424 1-791): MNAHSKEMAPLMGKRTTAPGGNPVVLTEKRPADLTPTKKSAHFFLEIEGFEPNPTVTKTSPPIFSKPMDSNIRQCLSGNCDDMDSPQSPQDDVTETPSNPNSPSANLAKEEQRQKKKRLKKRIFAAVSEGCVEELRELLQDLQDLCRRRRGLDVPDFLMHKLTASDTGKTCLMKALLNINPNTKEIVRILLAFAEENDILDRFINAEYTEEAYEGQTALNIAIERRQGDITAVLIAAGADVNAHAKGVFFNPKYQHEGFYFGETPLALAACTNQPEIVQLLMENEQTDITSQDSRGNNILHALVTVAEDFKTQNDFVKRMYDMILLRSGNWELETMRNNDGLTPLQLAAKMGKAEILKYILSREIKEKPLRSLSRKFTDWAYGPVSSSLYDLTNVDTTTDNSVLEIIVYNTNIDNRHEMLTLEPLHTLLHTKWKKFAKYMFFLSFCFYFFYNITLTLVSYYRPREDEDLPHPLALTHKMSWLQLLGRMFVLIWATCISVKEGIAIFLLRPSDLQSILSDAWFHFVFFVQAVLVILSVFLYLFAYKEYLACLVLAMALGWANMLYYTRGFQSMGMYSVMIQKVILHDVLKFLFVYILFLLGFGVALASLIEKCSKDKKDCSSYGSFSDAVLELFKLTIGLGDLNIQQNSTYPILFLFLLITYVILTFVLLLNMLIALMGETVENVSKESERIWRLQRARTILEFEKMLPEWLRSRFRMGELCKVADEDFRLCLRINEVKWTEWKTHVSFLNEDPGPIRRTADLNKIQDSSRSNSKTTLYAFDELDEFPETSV
Description: (§1) GFP-free C-terminally strep-tagged wild-type TRPV3, TRPV3-Y564A, TRPV3-Y594A, TRPV3-F633A, TRPV3-I663W, and TRPV3-F666A were expressed in HEK 293 S GnTI^− cells as previously described[41],[42],[53]. In short, 48 h after transduction, 1-ml aliquots of cell suspension were collected by centrifugation at 550 g for 5 min using an Eppendorf 5424 centrifuge. The cells were resuspended in the pre-warmed modified HEPES-buffered saline (HBS) containing 118 mM NaCl, 4.8 mM KCl, 1 mM MgCl2, 5 mM D-glucose, and 10 mM HEPES pH 7.4 and 5 μg/ml Fura-2 AM (Thermo Fisher Scientific) and incubated for 45 min at 37 °C. The Fura-2-loaded cells were then centrifuged for 5 min at 550 g, resuspended in the pre-warmed, modified HBS and incubated again for 30 min at 37 °C in the dark. The cells were subsequently pelleted and washed twice in the modified HBS. The washed cell pellets were kept on ice in the dark before taking an aliquot for fluorescence measurements. […] We used the lower CaCl2 concentration than before[42],[28] (2.5 mM) to minimize non-specific effects, which often appeared as a drift in the Fura-2 signal at high Ca^2+ concentration, presumably due to cell death as a result of calcium overload. Fluorescence measurements were conducted using a QuantaMaster 40 spectrofluorometer (Photon Technology International) at room temperature in a quartz cuvette under constant stirring. After 60 s since the beginning, the recording was paused and 2-APB was added. After the addition of 2-APB, the recording was continued for the additional 140 s. Changes in intracellular Ca^2+ were measured by taking the ratio of fluorescence emitted at 510 nm at the excitation wavelength of 340 nm and 380 nm. […] The data were processed using Origin 9.0 (OriginLab) software.

[2] = biological target: T2, TRPV3-F633A (Mus musculus, UniProt Q8K424, F633A); experiment: as above; format: cell-based
T2 construct: expressed in transfected cells; host or cells: HEK 293 S GnTI- cells (baculovirus transduction)
T2 sequence (Q8K424 1-791 F633A): T1 sequence (Q8K424 1-791) with F633A
Excerpt: The portal site in TRPV3 has not been previously shown to bind small-molecule inhibitors. This site, however, was originally proposed to be an entry pathway for local anesthetics to the pore of sodium channels[47]–[49] and found to accommodate cannabidiol in TRPV2, a closely-related representative of the vanilloid subfamily of TRP channels. […] We concluded that the Y594A mutation altered gating properties of TRPV3 and excluded this mutant from further analysis.
as §1

[3] = biological target: T3, TRPV3 (Mus musculus, UniProt Q8K424); experiment: 2-APB concentration dependence of TRPV3 activation at two dyclonine concentrations (Schild plot); format: cell-based; conditions: for TRPV3 activation by 2-APB in the presence of dyclonine (Schild plot source data): listed as Dyc
T3 construct: expressed in transfected cells; host or cells: HEK 293 S GnTI- cells (baculovirus transduction)
T3 sequence (Q8K424 1-791): T1 sequence (Q8K424 1-791)
Description: as §1

[4] = test system: TRPV3; conditions: cited from earlier work

Compound: CCCCOc1ccc(C(=O)CCN2CCCCC2)cc1 [dyclonine, 1-(4-butoxyphenyl)-3-piperidin-1-ylpropan-1-one]
- nHill of inhibition curve ([1]; logistic fit, 200 µM 2-APB, n = 7): 1.61 ± 0.27
- IC50 ([1]; read-out: IC50, inhibition of TRPV3-mediated Ca2+ uptake): 29.8 ± 5.3 µM
- IC50 of F633A compared to wild-type channels [2]: three times smaller
- IC50 ([2]; 200 µM 2-APB, n = 6, read-out: IC50, inhibition of F633A mutant): 9.8 ± 0.7 µM
- nHill of inhibition curve, F633A ([2]; logistic fit, n = 6): 1.68 ± 0.19
- TRPV3 activation by 2-APB in the presence of dyclonine (Schild plot source data) ([3]; 60 mM Dyc, 2-APB Conc 20, single experiments): 0.167 and 0.154 and 0.168
- TRPV3 activation by 2-APB in the presence of dyclonine (Schild plot source data) ([3]; 60 mM Dyc, 2-APB Conc 40, single experiments): 0.144 and 0.213 and 0.179
- TRPV3 activation by 2-APB in the presence of dyclonine (Schild plot source data) ([3]; 60 mM Dyc, 2-APB Conc 80, single experiments): 0.244 and 0.241 and 0.22
- TRPV3 activation by 2-APB in the presence of dyclonine (Schild plot source data) ([3]; 60 mM Dyc, 2-APB Conc 160, single experiments): 0.294 and 0.283
- TRPV3 activation by 2-APB in the presence of dyclonine (Schild plot source data) ([3]; 2-APB Conc 10, single experiments): 0.194 and 0.175 and 0.157
- TRPV3 activation by 2-APB in the presence of dyclonine (Schild plot source data) ([3]; 2-APB Conc 20, single experiments): 0.323 and 0.34 and 0.318
- TRPV3 activation by 2-APB in the presence of dyclonine (Schild plot source data) ([3]; 2-APB Conc 40, single experiments): 0.542 and 0.419 and 0.487
- TRPV3 activation by 2-APB in the presence of dyclonine (Schild plot source data) ([3]; 2-APB Conc 80, single experiments): 0.804 and 0.786 and 0.853
- competition between 2-APB and dyclonine (Schild plots) ([3]; 10 and 60 μM dyclonine): lack of obvious competition
- temperature-dependence of inhibition ([4]; TRPV3 activation by an infrared laser): lack of temperature-dependence
- effect on TRPV3 currents evoked by heat [4]: inhibits
- voltage-dependence of TRPV3 inhibition [4]: no voltage-dependence
